Patent publication US20140163050A1, “Use of 1H-quinazoline-2,4-diones” (priority 2011, published 2014)
Values after ≈ are worked out from the molar mass of the structure shown. Values joined by “and” are separate entries in the source; they are usually repeats but may differ in a detail not shown here. Equal entries are not always repeated. “Also recorded” adds a separate entry of the source. Where two headings read alike, the source gives them in different places.

Key:
Type in all cases: in vivo, human
[1] = C-7 plasma pharmacokinetics after single oral administration
Procedure: The C-7 PK parameters were determined in plasma using non-compartmental methods using WinNonlin Pro (Version 5.2), as detailed in Table 3.
Biofluid concentrations were expressed in mass per volume units (ng/mL). All C-7 and AEDs concentrations below LLOQ were reported as zero in the concentration data listings. Concentrations below LLOQ were treated as zero in summary statistics of concentration data as well as for calculation of C-7 PK parameters. A geometric mean was not reported whenever at least one concentration was below the LLOQ (i.e. zero). Missing data were labeled as such and no imputation methods were used.
Terminal elimination rate constant (lambda_z) was calculated as the slope of the linear regression of the terminal phase of the logarithmic concentration-time profile for each individual dataset available. A minimum of three time points was used for determining lambda_z. Regression was performed without weighting, and a minimum value of 0.75 for Rsq_adjusted was necessary for acceptance.
The different areas under the concentration-time curve were calculated using the linear trapezoidal summation (both ascending and descending phase).
Descriptive statistics of pharmacokinetic parameters included mean, SD, and CV, minimum and maximum. The geometric mean was identified when presented. A range of values were presented for selected variables. Since Tmax is generally evaluated by a nonparametric method, median values and ranges were provided.
The patients received the study medication in the morning between 8:00 h and 9:00 h, at least 30 minutes after a light breakfast had been completed.

patients with PSE = assay: PK-PD relationship, Emax model for SPR; conditions: for EC50: Homo sapiens, read-out: mean (SD) EC50; for EC50 / mean (SD) Emax on the logit scale: mean across the 13 patients; for EC50 (C-7 concentration at 50% of the maximum reduction in SPR) / Emax (maximum reduction in SPR on the logit scale): estimate for each patient (15, 50 or 100 mg)
Procedure: The mean SPR per eye condition and plasma PK concentrations of C-7 50, 100, and 15 mg dose groups is shown in FIG. 3, FIG. 4 and FIG. 5, respectively.
A PK-PD model was developed sequentially for the SPR data. Firstly a pharmacokinetic model was fitted using nonlinear mixed effects methodology in NONMEM version VI to describe the 13 patients with both PK and PD data. A 3 compartment disposition model with first order absorption and absorption lag time was selected to describe the pharmacokinetic time profile for each patient. The between patient variability was described by exponential random effects on each pharmacokinetic parameter, with all parameters assumed to be independent between individuals. The residual error model combined the additive and proportional error terms. The estimated pharmacokinetic parameters for each patient were used to generate each patient's PK profile as an input to the pharmacodynamic model.
For the Pharmacodynamic response, SPR, an Emax model was fitted on the logit transformed scale:
where Base is the baseline SPR on the logit scale, Emax is the maximum reduction in SPR on the logit scale, EC50 is the concentration at which the 50% of the maximum reduction is obtained and C is C-7 concentration. For each patient, the PD parameters for the three eye conditions, eyes closure, eyes closed and eyes open, were estimated separately but with a common additive residual variance on the logit scale. The PD parameter estimates were highly variable across the 13 patients, with the estimation having trouble identifying Emax and EC50 (see Table 6 below).

[2] = PK of concomitant AEDs on co-administration of C-7; conditions: C-7 on Day 2; AED PK profiles Day 1 vs Days 2 and 3
Procedure: Similar AEDs concentration-time profiles were observed on Days 1, 2 and 3 for each patient. Two of the patients in Cohort I were also enrolled in Cohort II. Their lamotrigine PK profiles were similar in the 2 treatment periods. These observations confirm stable pre-existing treatment for all the patients.
AED concentrations were listed and summarized; analysis of level of exposure of AED(s) taken by the patient was performed on an ad-hoc basis as it depended on specifics of the AED.

[3] = Cohort I, C-7 50 mg, individual patients
[4] = Cohort II, C-7 100 mg, individual patients
[5] = Cohort III, C-7 15 mg, individual patients
[6] = patients with PSE (after light breakfast) vs healthy volunteer study (fasted)

With CC(C)c1cc2[nH]c(=O)n(NS(C)(=O)=O)c(=O)c2cc1-c1ccnn1C [Compound C-7, N-[7-Isopropyl-6-(2-methyl-2H-pyrazol-3-yl)-2,4-dioxo-1,4-dihydro-2H-quinazolin-3-yl]-methanesulfonamide] as the molecule, how does the AUC0-24 h [1, 3] read?
The AUC0-24 h was 9838 ng·h/mL and 12564 ng·h/mL and 14162 ng·h/mL and 7043 ng·h/mL.

And the Cmax [1, 3]?
The Cmax was 1910 ng/mL and 2140 ng/mL and 2800 ng/mL and 1410 ng/mL.

And the Tmax [1, 3]?
The Tmax was 2.00 h and 2.92 h and 3.98 h and 3.87 h.

And the AUC0-24 h [1, 4]?
The AUC0-24 h was 17924 ng·h/mL and 13877 ng·h/mL.

What about the Cmax [1, 4] of the same molecule?
Its Cmax is 3470 ng/mL and 2950 ng/mL.

What about the Tmax [1, 4] of the same molecule?
Its Tmax is 2.88 h and 2.00 h.

And the AUC0-24 h [1, 5]?
Its AUC0-24 h is 2906 ng·h/mL and 3878 ng·h/mL.

What about the Cmax [1, 5] of the same molecule?
The Cmax was 634 ng/mL and 701 ng/mL.

What about the Tmax [1, 5] of the same molecule?
The Tmax was 4.00 h and 1.97 h.

And the AUC(0-t) ([1]; human, plasma, oral, 15 mg, Cohort III, C-7 15 mg, individual patients, read-out: AUC0-24 h)?
Its AUC(0-t) is 4270 ng·h/mL.

And the Cmax ([1]; human, plasma, oral, 15 mg, Cohort III, C-7 15 mg, individual patients, read-out: Cmax)?
Its Cmax is 581 ng/mL.

What about the Cmax ([1]; human, plasma, oral, 50 mg, Cohort I, C-7 50 mg, individual patients, read-out: Cmax) of the same molecule?
The Cmax was 1530 ng/mL.

And the Tmax ([1]; human, plasma, oral, 50 mg, Cohort I, C-7 50 mg, individual patients, read-out: Tmax)?
The Tmax was 3 h.

And the AUC(0-t) ([1]; human, plasma, oral, 100 mg, Cohort II, C-7 100 mg, individual patients, read-out: AUC0-24 h)?
Its AUC(0-t) is 21300 ng·h/mL.

What about the Cmax ([1]; human, plasma, oral, 100 mg, Cohort II, C-7 100 mg, individual patients, read-out: Cmax) of the same molecule?
Its Cmax is 3700 ng/mL.

And the Tmax ([1]; human, plasma, oral, 100 mg, Cohort II, C-7 100 mg, individual patients, read-out: Tmax)?
Its Tmax is 3 h.

What about the AUC(0-t) ([1]; human, plasma, po, 15 mg, plasma, single oral 15 mg, Cohort III, n = 3, geometric mean [% CV geo mean], read-out: AUC0-6 hr) of the same molecule?
The AUC(0-t) was 2130 ng·h/mL.

And the AUC(0-t) ([1]; human, plasma, po, 15 mg, plasma, single oral 15 mg, Cohort III, n = 3, geometric mean [% CV geo mean], read-out: AUC0-24 hr)?
The AUC(0-t) was 3640 ng·h/mL.

And the AUC(0-t) ([1]; human, plasma, po, 15 mg, plasma, single oral 15 mg, Cohort III, n = 3, geometric mean [% CV geo mean], read-out: AUClast)?
Its AUC(0-t) is 3660 ng·h/mL.

And the Cmax ([1]; human, plasma, po, 15 mg, plasma, single oral 15 mg, Cohort III, n = 3, geometric mean [% CV geo mean], read-out: Cmax)?
Its Cmax is 637 ng/mL.

What about the Tmax ([1]; human, plasma, po, 15 mg, plasma, single oral 15 mg, Cohort III, n = 3, median (min-max), read-out: Tmax) of the same molecule?
The Tmax was 2.98 h.

And the AUC(0-t) ([1]; human, plasma, po, 50 mg, plasma, single oral 50 mg, Cohort I, n = 6, geometric mean [% CV geo mean], read-out: AUC0-6 hr)?
Its AUC(0-t) is 6790 ng·h/mL.

What about the AUC(0-t) ([1]; human, plasma, po, 50 mg, plasma, single oral 50 mg, Cohort I, n = 6, geometric mean [% CV geo mean], read-out: AUC0-24 hr) of the same molecule?
The AUC(0-t) was 10600 ng·h/mL.

And the AUC(0-t) ([1]; human, plasma, po, 50 mg, plasma, single oral 50 mg, Cohort I, n = 6, geometric mean [% CV geo mean], read-out: AUClast)?
Its AUC(0-t) is 10700 ng·h/mL.

What about the Cmax ([1]; human, plasma, po, 50 mg, plasma, single oral 50 mg, Cohort I, n = 6, geometric mean [% CV geo mean], read-out: Cmax) of the same molecule?
Its Cmax is 1990 ng/mL.

What about the Tmax ([1]; human, plasma, po, 50 mg, plasma, single oral 50 mg, Cohort I, n = 6, median (min-max), read-out: Tmax) of the same molecule?
The Tmax was 2.96 h.

And the AUC(0-t) ([1]; human, plasma, po, 100 mg, plasma, single oral 100 mg, Cohort II, n = 4, geometric mean [% CV geo mean], read-out: AUC0-6 hr)?
Its AUC(0-t) is 10200 ng·h/mL.

What about the AUC(0-t) ([1]; human, plasma, po, 100 mg, plasma, single oral 100 mg, Cohort II, n = 4, geometric mean [% CV geo mean], read-out: AUC0-24 hr) of the same molecule?
The AUC(0-t) was 16900 ng·h/mL.

And the AUC(0-t) ([1]; human, plasma, po, 100 mg, plasma, single oral 100 mg, Cohort II, n = 4, geometric mean [% CV geo mean], read-out: AUClast)?
The AUC(0-t) was 17000 ng·h/mL.

What about the Cmax ([1]; human, plasma, po, 100 mg, plasma, single oral 100 mg, Cohort II, n = 4, geometric mean [% CV geo mean], read-out: Cmax) of the same molecule?
Its Cmax is 2980 ng/mL.

And the Tmax ([1]; human, plasma, po, 100 mg, plasma, single oral 100 mg, Cohort II, n = 4, median (min-max), read-out: Tmax)?
Its Tmax is 2.94 h.

And the “mean AUClast in patients higher than in healthy male subjects” value [1, 6]?
The value was 10-40%.

What about the “mean Cmax in patients higher than in healthy male subjects” value [1, 6] of the same molecule?
Its value is 10-20%.

And the Tlag ([1]; plasma, single oral 15 mg, Cohort III, n = 3, median (min-max))?
Its Tlag is 0.00 (0.00-0.00) hr.

And the Tlag ([1]; plasma, single oral 50 mg, Cohort I, n = 6, median (min-max))?
Its Tlag is 0.00 (0.00-0.00) hr.

What about the Tlag ([1]; plasma, single oral 100 mg, Cohort II, n = 4, median (min-max)) of the same molecule?
Its Tlag is 0.00 (0.00-0.00) hr.

And the “earliest time C-7 measurable in plasma” value ([1]; single 15, 50 or 100 mg dose)?
Its value is 0.25 h post-dose.

And the “time of peak plasma concentration (median)” value ([1]; single 15, 50 or 100 mg dose)?
Its value is “around 3 h post-dose”.

And the “time of peak plasma concentration, maximum in individual patients” value ([1]; single 15, 50 or 100 mg dose)?
Its value is 4 h.

And the “time of peak plasma concentration, minimum in individual patients” value ([1]; single 15, 50 or 100 mg dose)?
Its value is “approximately 2 h”.

What about the EC50 (patients with PSE; eyes closed) of the same molecule?
The EC50 was 3.75 µg/mL (≈ 9.93 µM).

What about the EC50 (patients with PSE; eyes closures) of the same molecule?
Its EC50 is 2.25 µg/mL (≈ 5.97 µM).

What about the EC50 (patients with PSE; eyes open) of the same molecule?
The EC50 was 2.96 µg/mL (≈ 7.85 µM).

What about the “EC50 (C-7 concentration at 50% of the maximum reduction in SPR)” value (patients with PSE; eyes closed) of the same molecule?
The value was 0.219 µg/mL and 0.005 µg/mL and 1.17 µg/mL and 0.31 µg/mL and 2.04 µg/mL and 0.229 µg/mL and 9.9 µg/mL and 2.08 µg/mL and 9.2 µg/mL.

And the “Emax (maximum reduction in SPR on the logit scale)” value (patients with PSE; eyes closed)?
Its value is 0.963 and 2.54 and 1.79 and 2.47 and 6.99 and 0.58 and 0.05 and 30.9 and 49.5 (3×) and 0.487.

And the “mean (SD) Emax on the logit scale” value (patients with PSE; eyes closed)?
The value was 16.3 (21.7).

And the “EC50 (C-7 concentration at 50% of the maximum reduction in SPR)” value (patients with PSE; eyes closure)?
The value was 1.69 µg/mL and 9.9 µg/mL and 0.32 µg/mL and 0.788 µg/mL and 1.27 µg/mL and 0.005 µg/mL and 0.01 µg/mL and 0.814 µg/mL and 1.41 µg/mL and 3.08 µg/mL and 0.0833 µg/mL.

What about the “Emax (maximum reduction in SPR on the logit scale)” value (patients with PSE; eyes closure) of the same molecule?
The value was 2.38 and 41.5 and 0.571 and 49.5 (2×) and 3.25 and 2.39 and 0.05 (2×) and 9.23 and 1.31 and 7.67 and 0.495.

What about the “mean (SD) Emax on the logit scale” value (patients with PSE; eyes closures) of the same molecule?
The value was 12.9 (19.6).

What about the “EC50 (C-7 concentration at 50% of the maximum reduction in SPR)” value (patients with PSE; eyes open) of the same molecule?
Its value is 1.47 µg/mL and 9.9 µg/mL and 0.629 µg/mL and 0.131 µg/mL and 0.005 µg/mL and 0.137 µg/mL and 1.61 µg/mL and 1.88 µg/mL.

What about the “Emax (maximum reduction in SPR on the logit scale)” value (patients with PSE; eyes open) of the same molecule?
The value was 1.14 and 40.8 and 1.03 and 49.5 (4×) and 14.5 and 1.29 and 0.05 (2×) and 2.66.

What about the “mean (SD) Emax on the logit scale” value (patients with PSE; eyes open) of the same molecule?
The value was 21.6 (23.5).

What about the “effect of co-administration of C-7 on the AED PK” value [2] of the same molecule?
The value was “did not seem to affect the AED PK; also recorded: did not seem to affect the PK of selected AEDs; also recorded: did not appear to affect the AED PK”.
